The target of one test is HDAC1 (Homo sapiens, UniProt Q13547). Description: Test of HDAC activities, HDAC1 Fluorimetric Drug Discovery Assay Kit. In kind it is biochemical. The arrangement: purchased Enzolifesciences BML-AK511. The settings on record: samples at 100, 1000, 10000 nM; 37° C. 60 minutes; fluorescence Ex 390, Em 460; read-out: HDAC inhibitory activities, HDAC1. The method in brief: (§1)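 HDAC1 tested at 100, 1000 and 10000 nM; recombinant human HDAC6 at 0.1, 1, 10, 100 and 1000 nM. Reaction 60 min at 37° C, then developer for 30 min at 37° C; fluorescence read at Ex 390/Em 460.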

The next test concerns the target T1, HDAC 6 (Homo sapiens, UniProt Q9UBN7).
T1 sequence (Q9UBN7 1-1215): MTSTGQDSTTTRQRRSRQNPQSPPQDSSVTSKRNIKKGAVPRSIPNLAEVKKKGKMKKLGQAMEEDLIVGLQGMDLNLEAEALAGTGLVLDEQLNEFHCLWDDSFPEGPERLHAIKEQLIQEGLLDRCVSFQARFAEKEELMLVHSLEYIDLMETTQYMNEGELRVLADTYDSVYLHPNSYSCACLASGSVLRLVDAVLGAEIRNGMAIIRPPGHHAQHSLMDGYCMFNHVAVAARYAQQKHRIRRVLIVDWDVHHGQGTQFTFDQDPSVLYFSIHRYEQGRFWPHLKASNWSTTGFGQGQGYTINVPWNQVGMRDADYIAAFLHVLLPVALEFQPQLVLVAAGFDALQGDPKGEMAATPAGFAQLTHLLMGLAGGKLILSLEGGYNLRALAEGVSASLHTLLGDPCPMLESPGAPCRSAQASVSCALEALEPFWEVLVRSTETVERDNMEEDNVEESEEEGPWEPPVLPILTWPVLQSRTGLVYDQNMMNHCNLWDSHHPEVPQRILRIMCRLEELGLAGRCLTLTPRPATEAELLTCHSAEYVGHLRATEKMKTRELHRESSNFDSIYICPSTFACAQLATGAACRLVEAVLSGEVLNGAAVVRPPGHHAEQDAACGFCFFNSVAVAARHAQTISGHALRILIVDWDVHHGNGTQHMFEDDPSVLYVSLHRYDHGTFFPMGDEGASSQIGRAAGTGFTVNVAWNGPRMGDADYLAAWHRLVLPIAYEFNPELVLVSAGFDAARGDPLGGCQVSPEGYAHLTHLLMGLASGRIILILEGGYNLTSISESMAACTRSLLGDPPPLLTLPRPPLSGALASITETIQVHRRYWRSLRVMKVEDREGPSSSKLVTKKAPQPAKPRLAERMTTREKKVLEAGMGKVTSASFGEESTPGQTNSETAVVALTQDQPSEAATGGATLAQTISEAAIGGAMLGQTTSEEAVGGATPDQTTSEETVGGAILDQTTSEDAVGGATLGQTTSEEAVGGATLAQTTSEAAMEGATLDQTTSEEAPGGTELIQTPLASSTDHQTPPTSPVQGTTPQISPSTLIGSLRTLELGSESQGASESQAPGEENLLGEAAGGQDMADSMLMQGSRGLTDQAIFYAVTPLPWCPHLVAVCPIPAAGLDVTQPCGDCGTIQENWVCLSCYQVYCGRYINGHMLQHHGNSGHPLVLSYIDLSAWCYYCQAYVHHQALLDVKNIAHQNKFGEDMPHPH
Description: Test of HDAC activities, HDAC6 (fluorimetric). The arrangement: purchased Calbiochem 382180. The settings on record: samples at 0.1, 1, 10, 100, 1000 nM; 37° C. 60 minutes; fluorescence Ex 390, Em 460; read-out: HDAC inhibitory activities, HDAC6. In kind it is biochemical. An outline of the steps:
as §1

SMILES strings stand for the structures. Where a name gives a salt, the structure may show the parent alone.

Sequence of HDAC1 (Q13547 whole entry): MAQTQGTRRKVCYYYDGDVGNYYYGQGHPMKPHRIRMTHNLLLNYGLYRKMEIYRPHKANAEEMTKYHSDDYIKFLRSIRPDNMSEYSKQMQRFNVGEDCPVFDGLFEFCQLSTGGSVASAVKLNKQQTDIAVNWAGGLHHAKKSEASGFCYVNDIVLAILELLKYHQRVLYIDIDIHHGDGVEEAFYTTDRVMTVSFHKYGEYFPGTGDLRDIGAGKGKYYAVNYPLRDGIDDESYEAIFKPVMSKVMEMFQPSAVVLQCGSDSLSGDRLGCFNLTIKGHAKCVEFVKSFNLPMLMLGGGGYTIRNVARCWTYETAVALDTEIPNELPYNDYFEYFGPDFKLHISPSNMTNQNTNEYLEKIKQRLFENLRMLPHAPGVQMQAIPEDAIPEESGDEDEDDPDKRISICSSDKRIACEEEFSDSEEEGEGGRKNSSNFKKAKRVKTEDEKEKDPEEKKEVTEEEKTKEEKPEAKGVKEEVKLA

In the case of `O=C(NO)c1ccc(CN(C(=O)N2CCN(CCO)CC2)c2cccc(-c3ccc4c(c3)OCO4)c2)cc1` [Compound 467, N-(3-(benzo[d][1,3]dioxol-5-yl)phenyl)-N-(4-(hydroxycarbamoyl)benzyl)-4-(2-hydroxyethyl)piperazine-1-carboxamide], the figures for the IC50 on HDAC1 and at HDAC 6 were 240 nM and 1 nM, respectively.

Turning to `O=C(NO)c1ccc(CN(C(=O)N2CCCC2)c2cccc(-c3ccc4c(c3)OCO4)c2)cc1` [Compound 468, N-(3-(benzo[d][1,3]dioxol-5-yl)phenyl)-N-(4-(hydroxycarbamoyl)benzyl)pyrrolidine-1-carboxamide], the IC50 on HDAC1 was determined as 12300 nM; on HDAC 6, 10 nM.

Regarding `O=C(NO)c1ccc(CN(C(=O)N2CCC[C@H]2CO)c2cccc(-c3ccc4c(c3)OCO4)c2)cc1` [Compound 469, (S)—N-(3-(benzo[d][1,3]dioxol-5-yl)phenyl)-N-(4-(hydroxycarbamoyl)benzyl)-2-(hydroxymethyl)pyrrolidine-1-carboxamide], the IC50 on HDAC1 is 5340 nM; at HDAC 6, 12 nM.

With `O=C(NO)c1ccc(CN(C(=O)N2CCN(C(=O)C3CC3)CC2)c2cccc(-c3ccc4c(c3)OCO4)c2)cc1` [Compound 470, N-(3-(benzo[d][1,3]dioxol-5-yl)phenyl)-4-(cyclopropanecarbonyl)-N-(4-(hydroxycarbamoyl)benzyl)piperazine-1-carboxamide], the figures for the IC50 on HDAC1 and on HDAC 6 were 635 nM and 1 nM, respectively.

`O=C(NO)c1ccc(CN(C(=O)N2CCC2)c2cccc(-c3ccc4c(c3)OCO4)c2)cc1` [Compound 471, N-(3-(benzo[d][1,3]dioxol-5-yl)phenyl)-N-(4-(hydroxycarbamoyl)benzyl)azetidine-1-carboxamide]: the IC50 on HDAC1 was 1150 nM; at HDAC 6, 14 nM.

For the molecule `CN1CCN(C(=O)N(Cc2ccc(C(=O)NO)cc2)c2ccc(F)c(Cl)c2)CC1` [Compound 478, N-(3-chloro-4-fluorophenyl)-N-(4-(hydroxycarbamoyl)benzyl)-4-methylpiperazine-1-carboxamide], the IC50 at HDAC1 came out at 190 nM; at HDAC 6, 9 nM.

For the molecule `CCN1CCN(C(=O)N(Cc2ccc(C(=O)NO)cc2)c2ccc(F)c(Cl)c2)CC1` [Compound 479, N-(3-chloro-4-fluorophenyl)-4-ethyl-N-(4-(hydroxycarbamoyl)benzyl)piperazine-1-carboxamide], the IC50 is 280 nM at HDAC1 and 7 nM on HDAC 6.

Regarding `O=C(NO)c1ccc(CN(C(=O)N2CCN(Cc3ccccc3)CC2)c2ccc(F)c(Cl)c2)cc1` [Compound 480, 4-benzyl-N-(3-chloro-4-fluorophenyl)-N-(4-(hydroxycarbamoyl)benzyl)piperazine-1-carboxamide], the IC50 turned out to be 1070 nM on HDAC1 and 18 nM at HDAC 6.

As to `COc1ccccc1N1CCN(C(=O)N(Cc2ccc(C(=O)NO)cc2)c2ccc(F)c(Cl)c2)CC1` [Compound 481, N-(3-chloro-4-fluorophenyl)-N-(4-(hydroxycarbamoyl)benzyl)-4-(2-methoxyphenyl)piperazine-1-carboxamide], the results for the IC50 at HDAC1 and on HDAC 6 were 2080 nM and 15 nM, respectively.

As to `O=C(NO)c1ccc(CN(C(=O)N2CCN(c3ccc(F)cc3)CC2)c2ccc(F)c(Cl)c2)cc1` [Compound 482, N-(3-chloro-4-fluorophenyl)-4-(4-fluorophenyl)-N-(4-(hydroxycarbamoyl)benzyl)piperazine-1-carboxamide], the results for the IC50 at HDAC1 and at HDAC 6 were 680 nM and 1 nM, respectively.

Regarding `O=C(NO)c1ccc(CN(C(=O)N2CCOCC2)c2cccc(C3CCOCC3)c2)cc1` [Compound 483, N-(4-(hydroxycarbamoyl)benzyl)-N-(3-(tetrahydro-2H-pyran-4-yl)phenyl)morpholine-4-carboxamide], the IC50 on HDAC1 turned out to be 840 nM; at HDAC 6, 7 nM.

For the molecule `COc1cccc(N(Cc2ccc(C(=O)NO)cc2)C(=O)N2CCOCC2)c1` [Compound 484, N-(4-(hydroxycarbamoyl)benzyl)-N-(3-methyoxyphenyl)morpholine-4-carboxamide], the IC50 turned out to be 680 nM at HDAC1 and 2 nM at HDAC 6.

As to `O=C(NO)c1ccc(CN(C(=O)N2CC(F)(F)C2)c2ccc(C(F)(F)F)cc2)cc1` [Compound 485, 3,3-difluoro-N-(4-(hydroxycarbamoyl)benzyl)-N-(4-(trifluoromethyl)phenyl)azetidine-1-carboxamide], the IC50 at HDAC1 is 860 nM; at HDAC 6, 8 nM.

`O=C(NO)c1ccc(CN(C(=O)N2CCC(O)(c3ccccc3)CC2)c2ccc(C(F)(F)F)cc2)cc1` [Compound 486, 4-hydroxy-N-(4-(hydroxycarbamoyl)benzyl)-4-phenyl-N-(4-(trifluoromethyl)phenyl)piperidine-1-carboxamide]: the figures for the IC50 at HDAC1 and at HDAC 6 were 1450 nM and 6 nM, respectively.

With `O=C(NO)c1ccc(CN(C(=O)N2CCOCC2)c2cccc(Br)c2)c(F)c1` [Compound 487, N-(3-bromophenyl)-N-(2-fluoro-4-(hydroxycarbamoyl)benzyl)morpholine-4-carboxamide], the IC50 was 178 nM at HDAC1 and 7 nM on HDAC 6.

Regarding `O=C(NO)c1ccc(CN(C(=O)N2CCC(O)CC2)c2cccc(Br)c2)c(F)c1` [Compound 488, N-(3-bromophenyl)-N-(2-fluoro-4-(hydroxycarbamoyl)benzyl)-4-hydroxypiperidine-1-carboxamide], the IC50 stood at 1170 nM on HDAC1 and 0.5 nM on HDAC 6.

For the molecule `CC(C)(C)OC(=O)N1CCC(c2cccc(N(Cc3ccc(C(=O)NO)cc3)C(=O)N3CCOCC3)c2)CC1` [Compound 489, tert-butyl 4-(3-(N-(4-(hydroxycarbamoyl)benzyl)morpholine-4-carboxamido)phenyl)piperidine-1-carboxylate], the IC50 on HDAC1 amounted to 1220 nM; at HDAC 6 it was 0.5 nM.

With `CC(=O)N1CCC(c2cccc(N(Cc3ccc(C(=O)NO)cc3)C(=O)N3CCOCC3)c2)CC1` [Compound 490, N-(3-(1-acetylpiperidin-4-yl)phenyl)-N-(4-(hydroxycarbamoyl)benzyl)morpholine-4-carboxamide], the IC50 at HDAC1 was found to be 703 nM; at HDAC 6 it was 19 nM.

As to `CS(=O)(=O)N1CCC(c2cccc(N(Cc3ccc(C(=O)NO)cc3)C(=O)N3CCOCC3)c2)CC1` [Compound 491, N-(4-(hydroxycarbamoyl)benzyl)-N-(3-(1-(methylsulfonyl)piperidin-4-yl)phenyl)morpholine-4-carboxamide], the values for the IC50 on HDAC1 and on HDAC 6 were 3220 nM and 9 nM, respectively.

In the case of `CC(C)NC(=O)N1CCC(c2cccc(N(Cc3ccc(C(=O)NO)cc3)C(=O)N3CCOCC3)c2)CC1` [Compound 492, N-(4-(hydroxycarbamoyl)benzyl)-N-(3-(1-(isopropylcarbamoyl)piperidin-4-yl)phenyl)morpholine-4-carboxamide], the IC50 at HDAC1 amounted to 1260 nM; on HDAC 6, 2 nM.

On to `O=C(NO)c1ccc(CN(C(=O)N2CCOCC2)c2cccc(C3CCNCC3)c2)cc1` [Compound 493, N-(4-(hydroxycarbamoyl)benzyl)-N-(3-(piperidin-4-yl)phenyl)morpholine-4-carboxamide hydrochloride], for which the results for the IC50 at HDAC1 and on HDAC 6 were 883 nM and 11 nM, respectively.

`CC(=O)N1CCN(C(=O)N(Cc2ccc(C(=O)NO)cc2)c2cccc(C(F)(F)F)c2)CC1` [Compound 494, 4-acetyl-N-(4-(hydroxycarbamoyl)benzyl)-N-(3-(trifluoromethyl)phenyl)piperazine-1-carboxamide]: the IC50 was found to be 692 nM on HDAC1 and 1 nM on HDAC 6.

In the case of `O=C(NO)c1ccc(CN(C(=O)N2CC[C@@H](F)C2)c2cccc(C(F)(F)F)c2)cc1` [Compound 495, (R)-3-fluoro-N-(4-(hydroxycarbamoyl)benzyl)-N-(3-(trifluoromethyl)phenyl)pyrrolidine-1-carboxamide], the results for the IC50 on HDAC1 and on HDAC 6 were 3330 nM and 11 nM, respectively.

For the origin of these results see patent US9878986B2, “Compounds for selective histone deacetylase inhibitors, and pharmaceutical composition comprising the same” (CHONG KUN DANG PHARMACEUTICAL CORP., priority 2013, dated 2018).
